We go through 19 molecules from patent publication US12344610B2, “APOL1 inhibitors and methods of use” (Maze Therapeutics, Inc., priority 2022, dated 2025).

Each structure is given as a SMILES string. Like-named read-outs stand apart in the source and are kept apart here.

Test [1] concerns Trypanosoma brucei Lister 427 VSG221 with APOL1 G0 recombinant protein. Description: APOL1 G0 trypanosome cell rescue assay (Example B5). It counts as cell-based. To be noted: geometric mean of at least 2 assay runs, † = single assay run. Put shortly:
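Compounds in duplicate 2-fold, 11-point series with 0.4% DMSO final. Next, tag-free mature APOL1 variant protein went in from a 2 μg/mL solution, then trypanosomes to 250 per well. Plates incubated 20 h humidified at 37° C, equilibrated to room temperature, and CellTiter-Glo added for luminescence.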

The subject of test [2] is HEK293 clonal cell line overexpressing APOL1 G1. Description: APOL1 G1 HEK293 cell rescue assay (Example B3). The settings on record: geometric mean of at least 2 runs, † = single run, ¥ = concentration at 50% rescue estimated (no sigmoidal curve). It counts as cell-based. An outline of the steps:
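HEK293 clonal line overexpressing APOL1 G1; EC50 is half-maximal reversal of APOL1-induced cell death. Values are the geometric mean of ≥2 runs on separate days, each run the average of duplicate wells. Where no sigmoidal curve could be fitted, the concentration giving 50% rescue was estimated.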

Setting [3] is: Trypanosoma brucei, 20 h, read-out: APOL1 G0 Trypanosome Rescue EC50, Trypanosoma brucei Lister 427 VSG221 with APOL1 G0 recombinant protein, 20 hours, CellTiter-Glo.
[4] abbreviates: Homo sapiens, HEK293, HEK293 clonal line overexpressing APOL1 G1.
Where [5] appears, read: read-out: APOL1 G0 Trypanosome Rescue EC50, Trypanosoma brucei Lister 427 VSG221 with APOL1 G0 recombinant protein, 20 hours, CellTiter-Glo.
[6] abbreviates: HEK293 clonal line overexpressing APOL1 G1.

For `Cn1c(=O)[nH]c2cc(OCCN3CCC4(CC3)C(=O)Nc3ccc(Cl)cc34)ccc21` [Compound 88, 5-chloro-1′-{2-[(1-methyl-2-oxo-2,3-dihydro-1H-1,3-benzodiazol-5-yl)oxy]ethyl}-1,2-dihydrospiro[indole-3,4′-piperidin]-2-one], the values for the 50% effective concentration (EC50) in test [1] (setting [3]) and in test [2] (setting [4]) were 451 nM and 438 nM, respectively.

Regarding `CS(=O)(=O)C1(c2c(F)cc(OCCN3CCC4(CC3)C(=O)Nc3ccc(C#N)cc34)cc2F)COC1` [Compound 84, 1′-{2-[3,5-difluoro-4-(3-methanesulfonyloxetan-3-yl)phenoxy]ethyl}-2-oxo-1,2-dihydrospiro[indole-3,4′-piperidine]-5-carbonitrile], the concentration giving a half-maximal response (EC50) (usually the midpoint of the concentration-response curve) in test [1] (setting [3]) was 101 nM; in test [2] (setting [4]) it was 233 nM.

Regarding `C[C@]1(O)C[C@@H](n2c(=O)cnc3cc(OCCN4CCC5(CC4)C(=O)Nc4ccc(Cl)cc45)cnc32)C1` [Compound 358, 5-chloro-1′-[2-({3-oxo-4-[(cis)-3-hydroxy-3-methylcyclobutyl]-3H,4H-pyrido[2,3-b]pyrazin-7-yl}oxy)ethyl]-1,2-dihydrospiro[indole-3,4′-piperidin]-2-one], the EC50 is 62.1 nM in test [1] (setting [3]) and 111 nM in test [2] (setting [4]).

For the molecule `CC(O)c1ncc(OCCN2CCC3(CC2)C(=O)Nc2ccc(C#N)cc23)cc1C(F)(F)F` (single isomer, unassigned) [Compound 377, 1′-[2-({6-(1S) or (1R)-1-hydroxyethyl]-5-(trifluoromethyl)pyridin-3-yl}oxy)ethyl]-2-oxo-1,2-dihydrospiro[indole-3,4′-piperidine]-5-carbonitrile], the EC50 was 205 nM in test [1] (setting [5]) and 172 nM in test [2] (setting [6]).

As to `CC(C)N1C(=O)CCc2cc(OCCN3CCC4(CC3)C(=O)Nc3ccc(C#N)cc34)ccc21` [Compound 96, 2-oxo-1′-(2-{[2-oxo-1-(propan-2-yl)-1,2,3,4-tetrahydroquinolin-6-yl]oxy}ethyl)-1,2-dihydrospiro[indole-3,4′-piperidine]-5-carbonitrile], the EC50 in test [1] (setting [3]) was 122 nM; in test [2] (setting [4]) it was 148 nM.

On to `O=C1Nc2ccc(Cl)cc2C12CCN(CCOc1ccc3c(cnn3[C@H]3C[C@@H](O)C3)c1)CC2` [Compound 85, 5-chloro-1′-[2-({1-[(cis)-3-hydroxycyclobutyl]-1H-indazol-5-yl}oxy)ethyl]-1,2-dihydrospiro[indole-3,4′-piperidin]-2-one], for which the concentration for a half-maximal effect (EC50) in test [1] (setting [3]) is 115 nM; in test [2] (setting [4]) it was 157 nM.

With `CC1(O)CN(c2ncc(OCCN3CCC4(CC3)C(=O)Nc3ccc(C(F)F)cc34)cn2)C1` [Compound 395, 5-(difluoromethyl)-1′-(2-{[2-(3-hydroxy-3-methylazetidin-1-yl)pyrimidin-5-yl]oxy}ethyl)-1,2-dihydrospiro[indole-3,4′-piperidin]-2-one], the EC50 in test [1] (setting [3]) is 240 nM; in test [2] (setting [4]), 157 nM.

Turning to `O=C1Nc2ccc(Cl)cc2C12CCN(CCOc1ccc3[nH]ncc3c1)CC2` [Compound 87, 5-chloro-1′-[2-(2H-indazol-5-yloxy)ethyl]-1,2-dihydrospiro[indole-3,4′-piperidin]-2-one], the EC50 in test [1] (setting [3]) is 268 nM; in test [2] (setting [4]) it was 281 nM.

Regarding `O=C1CCc2cc(OCCN3CCC4(CC3)C(=O)Nc3ccc(Cl)cc34)ccc2N1` [Compound 82, 5-chloro-1′-{2-[(2-oxo-1,2,3,4-tetrahydroquinolin-6-yl)oxy]ethyl}-1,2-dihydrospiro[indole-3,4′-piperidin]-2-one], the EC50 in test [1] (setting [3]) is 254 nM; in test [2] (setting [4]), 252 nM.

In the case of `CS(=O)(=O)N(CCO)c1ccc(OCCN2CCC3(CC2)C(=O)Nc2ccc(Cl)cc23)cc1` [Compound 98, N-[4-(2-{5-chloro-2-oxo-1,2-dihydrospiro[indole-3,4′-piperidin]-1′-yl}ethoxy)phenyl]-N-(2-hydroxyethyl)methanesulfonamide], the EC50 in test [1] (setting [3]) is 207 nM; in test [2] (setting [4]), 183 nM.

In the case of `CC(O)c1ncc(OCCN2CCC3(CC2)C(=O)Nc2ccc(C#N)cc23)cc1C(F)(F)F` (single isomer, unassigned) [Compound 376, 1′-[2-({6-[(1S) or (1R)-1-hydroxyethyl]-5-(trifluoromethyl)pyridin-3-yl}oxy)ethyl]-2-oxo-1,2-dihydrospiro[indole-3,4′-piperidine]-5-carbonitrile], the EC50 was 95.6 nM in test [1] (setting [5]) and 129 nM in test [2] (setting [4]).

For the molecule `O=C1CCc2cc(OCCN3CCC4(CC3)C(=O)Nc3ccc(Cl)cc34)cnc2N1[C@H]1C[C@H](O)C1` [Compound 267, 5-chloro-1′-[2-({7-oxo-8-[(trans)-3-hydroxycyclobutyl]-5,6,7,8-tetrahydro-1,8-naphthyridin-3-yl}oxy)ethyl]-1,2-dihydrospiro[indole-3,4′-piperidin]-2-one], the EC50 was 95.4 nM in test [1] (setting [3]) and 137 nM in test [2] (setting [4]).

For `O=C1Nc2ccc(Cl)cc2C12CCN(CCOc1ccc3c(cnn3[C@H]3C[C@H](O)C3)c1)CC2` [Compound 86, 5-chloro-1′-[2-({1-[(trans)-3-hydroxycyclobutyl]-1H-indazol-5-yl}oxy)ethyl]-1,2-dihydrospiro[indole-3,4′-piperidin]-2-one], the figures for the 50% effective concentration (EC50) in test [1] (setting [3]) and in test [2] (setting [4]) were 96.4 nM and 126 nM, respectively.

`CS(=O)(=O)N1CCc2cc(OCCN3CCC4(CC3)C(=O)Nc3ccc(Cl)cc34)ccc2C1` [Compound 94, 5-chloro-1′-{2-[(2-methanesulfonyl-1,2,3,4-tetrahydroisoquinolin-6-yl)oxy]ethyl}-1,2-dihydrospiro[indole-3,4′-piperidin]-2-one]: the EC50 is 403 nM in test [1] (setting [3]) and 210 nM in test [2] (setting [4]).

For the molecule `CC1(S(=O)(=O)c2ccc(OCCN3CCC4(CC3)C(=O)Nc3ccc(C#N)cc34)cc2)COC1` [Compound 93, 1′-(2-{4-[(3-methyloxetan-3-yl)sulfonyl]phenoxy}ethyl)-2-oxo-1,2-dihydrospiro[indole-3,4′-piperidine]-5-carbonitrile], the EC50 in test [1] (setting [3]) is 156 nM; in test [2] (setting [4]), 230 nM.

`CS(=O)(=O)c1c(F)cc(OCCN2CCC3(CC2)C(=O)Nc2ccc(Cl)cc23)cc1F` [Compound 89, 5-chloro-1′-[2-(3,5-difluoro-4-methanesulfonylphenoxy)ethyl]-1,2-dihydrospiro[indole-3,4′-piperidin]-2-one]: the concentration giving a half-maximal response (EC50) was 101 nM in test [1] (setting [3]) and 138 nM in test [2] (setting [4]).

Regarding `COC(=O)C1(S(=O)(=O)c2ccc(OCCN3CCC4(CC3)C(=O)Nc3ccc(Cl)cc34)cc2)CC1` [Compound 91, methyl 1-[4-(2-{5-chloro-2-oxo-1,2-dihydrospiro[indole-3,4′-piperidin]-1′-yl}ethoxy)benzenesulfonyl]cyclopropane-1-carboxylate], the values for the 50% effective concentration (EC50) in test [1] (setting [3]) and in test [2] (setting [4]) were 54.6 nM and 99 nM, respectively.

In the case of `CS(=O)(=O)C1(c2ncc(OCCN3CCC4(CC3)C(=O)Nc3ccc(OC(F)F)cc34)cn2)CC1` [Compound 6, 5-(difluoromethoxy)-1′-(2-{[2-(1-methanesulfonylcyclopropyl)pyrimidin-5-yl]oxy}ethyl)-1,2-dihydrospiro[indole-3,4′-piperidin]-2-one], the EC50 is 381 nM in test [1] (setting [3]) and 252 nM in test [2] (setting [4]).

As for `CS(=O)(=O)C1(c2ccc(OCCN3CCC4(CC3)C(=O)Nc3ccc(Cl)cc34)cc2)CC(O)C1` (stereo not drawn) [Compound 269, 5-chloro-1′-(2-{4-[(cis) or (trans)-3-hydroxy-1-methanesulfonylcyclobutyl]phenoxy}ethyl)-1,2-dihydrospiro[indole-3,4′-piperidin]-2-one], the EC50 is 207 nM in test [1] (setting [5]) and 325 nM in test [2] (setting [6]).
